Assays:
Type in all cases: functional
Rattus norvegicus [1] = experiment: In vivo inhibition of ionophore induced rat pleurisy.
[2] = molecular target: T1, Polyunsaturated fatty acid 5-lipoxygenase (Homo sapiens) (UniProt P09917); experiment: Inhibition of Calcium Ionophore (A-23187)-stimulated LTB4 formation in Human Neutrophil assay at 100 uM.
T1 sequence (whole entry): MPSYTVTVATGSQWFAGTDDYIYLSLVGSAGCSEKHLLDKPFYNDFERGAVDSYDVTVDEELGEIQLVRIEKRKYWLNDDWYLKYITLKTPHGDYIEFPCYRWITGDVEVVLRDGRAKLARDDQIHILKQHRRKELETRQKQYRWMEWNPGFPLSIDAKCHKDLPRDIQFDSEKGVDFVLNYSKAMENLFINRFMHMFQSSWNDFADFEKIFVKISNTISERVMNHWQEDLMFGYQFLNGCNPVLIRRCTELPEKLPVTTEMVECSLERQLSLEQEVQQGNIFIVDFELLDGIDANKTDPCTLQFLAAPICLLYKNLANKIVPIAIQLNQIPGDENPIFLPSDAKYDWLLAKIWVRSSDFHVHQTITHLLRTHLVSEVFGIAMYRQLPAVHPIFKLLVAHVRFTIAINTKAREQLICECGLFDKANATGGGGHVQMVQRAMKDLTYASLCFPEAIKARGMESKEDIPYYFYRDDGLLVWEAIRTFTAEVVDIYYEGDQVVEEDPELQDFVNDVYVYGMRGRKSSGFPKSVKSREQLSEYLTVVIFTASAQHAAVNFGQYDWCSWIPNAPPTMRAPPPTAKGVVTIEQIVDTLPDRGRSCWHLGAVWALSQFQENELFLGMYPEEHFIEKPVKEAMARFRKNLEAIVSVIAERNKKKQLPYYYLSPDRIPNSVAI

Rattus norvegicus [3] = experiment: Percent inhibition was determined for in vivo ionophore induced rat pleurisy at a dose of 3 mg/kg

Row | Structure (SMILES) | ED50 (Rattus norvegicus [1]) | inhibition [2] | I (Rattus norvegicus [3])
1 | C/C(=N\OC(CC(C)(C)c1ccccc1)c1ccc(OCc2ccc3ccccc3n2)cc1)C(=O)O (stereo not given) | 2 mg/kg | – | –
2 | O=C(O)/C=N/OC(c1ccc(OCc2ccc3ccccc3n2)cc1)C1C2CC3CC(C2)CC1C3 (stereo not given) | 1.2 mg/kg | – | –
3 | O=C(O)/C=N/OC(c1ccc(OCc2ccc3ccccc3n2)c(F)c1)C1CCCCC1 (stereo not given) | – | 97% | –
4 | CC(/C=C/C(=O)O)=N\OC(c1ccc(OCc2ccc3ccccc3n2)cc1)C1CCCCC1 (stereo not given) | 2 mg/kg | – | –
5 | CCCCCCCC(O/N=C/C(=O)O)c1ccc(OCc2ccc3ccccc3n2)cc1 (stereo not given) | – | 100% | 0%
6 | C/C(=N\OC(c1ccc(COc2ccc3ccccc3n2)cc1)C1CCCCC1)C(=O)O (stereo not given) | – | – | 0%
7 | O=C(O)/C=C/c1ccc(/C=N/OC(c2ccc(OCc3ccc4ccccc4n3)cc2)C2CCCCC2)cc1 (stereo not given) | – | 48% | 0%
8 | C/C(CCCC(=O)O)=N\OC(c1ccc(OCc2ccc3ccccc3n2)cc1)C1CCCCC1 (stereo not given) | 3 mg/kg | – | –
9 | C/C(=N\OC(Cc1ccccc1)c1ccc(OCc2ccc3ccccc3n2)cc1)C(=O)O (stereo not given) | – | – | 36%
10 | O=C(O)/C=N/OC(c1ccc(-c2ccc(OCc3ccc4ccccc4n3)cc2)cc1)C1CCCCC1 (stereo not given) | – | 55% | 10%
11 | C/C(=N\OC(CCCc1ccc(F)cc1)c1ccc(OCc2ccc3ccccc3n2)cc1)C(=O)O (stereo not given) | 2.6 mg/kg | – | –
12 | O=C(O)/C=N/OC(c1ccc(OCc2nc(-c3ccccc3)cs2)cc1)C1CCCCC1 (stereo not given) | – | – | 0%
13 | CCCCC(CCCC)C(O/N=C/C(=O)O)c1ccc(OCc2ccc3ccccc3n2)cc1 (stereo not given) | – | – | 7%
14 | CCCCCCCCC(O/N=C(\C)C(=O)O)c1ccc(OCc2ccc3ccccc3n2)cc1 (stereo not given) | – | 92% | 27%
15 | O=C(O)/C=N/OC(c1ccc2cc(OCc3ccc4ccccc4n3)ccc2c1)C1CCCCC1 (stereo not given) | – | – | 24%
16 | O=C(O)/C=N/OC(c1ccc(OCc2csc(-c3ccc(Cl)cc3)n2)cc1)C1CCCCC1 (stereo not given) | – | – | 30%
17 | C/C(=N\OC(c1ccc(OCc2nc3cc(F)ccc3s2)cc1Cl)C1CCCCC1)C(=O)O (stereo not given) | – | – | 22%
18 | C/C(=N\OCC(c1ccc(OCc2ccc3ccccc3n2)cc1)C1CCCCC1)C(=O)O (stereo not given) | – | – | 33%
19 | O=C(O)/C=N/OC(c1ccc(OCc2ccc3ccccc3n2)cc1)C1CCCCC1 (stereo not given) | 2.5 mg/kg | – | –
20 | C/C(CCC(=O)O)=N\OC(c1ccc(OCc2ccc3ccccc3n2)cc1)C1CCCCC1 (stereo not given) | 1 mg/kg | – | –
21 | O=C(O)/C(=N\OC(c1ccc(OCc2ccc3ccccc3n2)cc1)C1CCCCC1)c1cccs1 (stereo not given) | – | – | 60%
22 | COc1ccc(C(O/N=C(\C)C(=O)O)c2ccc(OCc3ccc4ccccc4n3)cc2)cc1 (stereo not given) | – | 58% | 20%
23 | O=C(O)c1ccc(O)c(/C=N/OC(c2ccc(OCc3ccc4ccccc4n3)cc2)C2CCCCC2)c1 (stereo not given) | – | 95% | 35%
24 | C/C(=N\OC(c1ccc(OCc2cccc(Cl)n2)cc1)C1CCCCC1)C(=O)O (stereo not given) | – | 7% | –
25 | C/C(=N\OC(c1ccc(OCc2nc3ccccc3s2)cc1Cl)C1CCCCC1)C(=O)O (stereo not given) | 2.6 mg/kg | – | –

Row | Structure (SMILES) | ED50 (Rattus norvegicus [1]) | inhibition [2] | I (Rattus norvegicus [3])
26 | CC(C)(C)Sc1c(CC(C)(C)C(=O)[O-])n(Cc2ccc(Cl)cc2)c2ccc(OCc3ccc4ccccc4n3)cc12.[Na+] [QUIFLAPON SODIUM] | 1.6 mg/kg | – | –
27 | COc1cc(OCc2ccc3ccccc3n2)ccc1C(O/N=C/C(=O)O)C1CCCCC1 (stereo not given) | – | – | 41%
28 | O=C(O)/C=N/OC(c1ccc(OCc2ccccn2)cc1)C1CCCCC1 (stereo not given) | – | – | 3%
29 | C/C(=N/OC(CCc1ccc(OCc2ccc3ccccc3n2)cc1)C1CCCCC1)C(=O)O (stereo not given) | – | 51% | 6%
30 | O=C(O)/C=N/OC(c1cc2cc(OCc3ccc4ccccc4n3)ccc2o1)C1CCCCC1 (stereo not given) | – | – | 31%
31 | C/C(CCC(=O)O)=N/OC(c1ccc(OCc2ccc3ccccc3n2)cc1)C1CCCCC1 (stereo not given) | – | – | 62%
32 | C/C(=N\OC(c1ccc(OCc2ccc3ccccc3n2)cc1)C1C2CC3CC(C2)CC1C3)C(=O)O (stereo not given) | 0.6 mg/kg | – | –
33 | CCCCCCCC(O/N=C(\C)C(=O)O)c1ccc(OCc2ccc3ccccc3n2)cc1 (stereo not given) | – | 96% | –
34 | C/C(=N\OC(c1ccc(OCc2nc(-c3ccccc3)cs2)cc1)C1CCCCC1)C(=O)O (stereo not given) | – | – | 15%
35 | Cc1nc(COc2ccc(C(O/N=C/C(=O)O)C3CCCCC3)cc2)cs1 (stereo not given) | – | – | 4%
36 | O=C(O)/C=N/OC(c1ccc(OCc2nc3ccccc3o2)cc1)C1CCCCC1 (stereo not given) | – | – | 14%
37 | O=C(O)/C=N/OC(c1ccc(OCc2ccc3cc(F)ccc3n2)cc1)C1CCCCC1 (stereo not given) | – | – | 39%
38 | O=C(O)/C=N/OC(c1ccc(OCc2nc3ccccc3s2)cc1Cl)C1CCCCC1 (stereo not given) | – | – | 84%
39 | C/C(=N\OC(c1ccc(OCc2ccc3ccccc3n2)c(C)c1)C1CCCCC1)C(=O)O (stereo not given) | – | – | 58%
40 | O=C(O)/C=N/OC(c1ccc(OCc2nc3cc(F)ccc3s2)cc1Cl)C1CCCCC1 (stereo not given) | 1.7 mg/kg | – | –
41 | O=C(O)CSC(CCCc1ccc(Cl)cc1)c1ccc(OCc2ccc3ccccc3n2)cc1 (stereo not given) | 1.6 mg/kg | – | –
42 | O=C(O)/C=N/OC(c1ccc(OCc2ccc3ccccc3n2)cc1)C1CCCC1 (stereo not given) | – | – | 27%
43 | CC(c1cc2ccccc2s1)N(O)C(N)=O (stereo not given) [ZILEUTON] | 6 mg/kg | – | –
44 | O=C(O)/C=N/OC(c1ccc(OCc2nc3cc(F)ccc3s2)cc1)C1CCCCC1 (stereo not given) | – | – | 0%
45 | CCCCC(O/N=C(\C)C(=O)O)c1ccc(OCc2ccc3ccccc3n2)cc1 (stereo not given) | – | 45% | –
46 | C/C(=N\OC(c1ccc(OCc2ccc3ccccc3n2)cc1)c1cccnc1)C(=O)O (stereo not given) | – | 20% | –
47 | O=C(O)/C=N/OC(c1ccc(OCc2nc3ccccc3s2)cc1Br)C1CCCCC1 (stereo not given) | 1 mg/kg | – | –
48 | CCCCC(O/N=C/C(=O)O)c1ccc(OCc2ccc3ccccc3n2)cc1 (stereo not given) | – | – | 0%
49 | C/C(=N\OC(c1ccc(OCc2ccc3cc(F)ccc3n2)cc1)C1CCCCC1)C(=O)O (stereo not given) | 0.4 mg/kg | – | –
50 | C/C(=N\OC(c1ccc(OCc2ccc3ccccc3n2)cc1)C1CCCC1)C(=O)O (stereo not given) | – | – | 61%

Row | Structure (SMILES) | ED50 (Rattus norvegicus [1]) | inhibition [2] | I (Rattus norvegicus [3])
51 | O=C(O)/C=N/OC(c1nc(OCc2ccc3ccccc3n2)c(-c2ccccc2)s1)C1CCCCC1 (stereo not given) | – | 2% | –
52 | CCCCC(CCCC)C(O/N=C(\C)C(=O)O)c1ccc(OCc2ccc3ccccc3n2)cc1 (stereo not given) | – | – | 40%
53 | C/C(=N\OC(c1ccc(OCc2ccc3ccccc3n2)cc1)c1cccs1)C(=O)O (stereo not given) | – | – | 6%
54 | C/C(=N\OC(c1ccc(OCc2ccc3ccccc3n2)cc1)C1CCCCCC1)C(=O)O (stereo not given) | 0.7 mg/kg | – | –
55 | CC(C)c1ccc(-c2csc(COc3ccc(C(O/N=C/C(=O)O)C4CCCCC4)cc3)n2)cc1 (stereo not given) | – | – | 15%
56 | O=C(O)C1CCC(=NOC(c2ccc(OCc3ccc4ccccc4n3)cc2)C2CCCCC2)CC1 (stereo not given) | – | – | 9%
57 | O=C(O)/C=N/OC(c1ccc(OCc2cnc3ccccc3n2)cc1)C1CCCCC1 (stereo not given) | – | – | 28%
58 | O=C(O)/C(Cc1ccc(O)cc1)=N/OC(c1ccc(OCc2ccc3ccccc3n2)cc1)C1CCCCC1 (stereo not given) | – | – | 39%
59 | C/C(=N\OC(c1cc2ccc(OCc3ccc4ccccc4n3)cc2s1)C1CCCCC1)C(=O)O (stereo not given) | – | – | 80%
60 | C/C(=N\OC(c1ccc(OCc2ccc3ccccc3n2)cc1)C1CCCCC1)C(=O)O (stereo not given) | – | 95% | –
61 | C/C(CCCCCC(=O)O)=N\OC(c1ccc(OCc2ccc3ccccc3n2)cc1)C1CCCCC1 (stereo not given) | – | – | 5%
62 | O=C(O)/C=N/OC(c1ccc(OCc2nc3cccnc3s2)cc1)C1CCCCC1 (stereo not given) | – | – | 47%
63 | O=C(O)/C(=N/OC(c1ccc(OCc2ccc3ccccc3n2)cc1)C1CCCCC1)c1ccccc1 (stereo not given) | – | – | 41%
64 | O=C(O)/C(=N/OC(c1ccc(OCc2ccc3ccccc3n2)cc1)C1CCCCC1)c1cccs1 (stereo not given) | – | – | 29%
65 | O=C(O)c1ccc(/C=N/OC(c2ccc(OCc3ccc4ccccc4n3)cc2)C2CCCCC2)cc1 (stereo not given) | – | – | 41%
66 | O=C(O)/C(CCc1ccccc1)=N/OC(c1ccc(OCc2ccc3ccccc3n2)cc1)C1CCCCC1 (stereo not given) | – | – | 34%
67 | C/C(=N\OC(c1ccc(OCc2nc3ccccc3s2)cc1)C1CCCCC1)C(=O)O (stereo not given) | – | – | 85%
68 | O=C(O)/C=N/OC(c1ccc(OCc2nc3ccccc3s2)cc1)C1CCCCC1 (stereo not given) | 3 mg/kg | – | –
69 | C/C(=N\OC(c1ccc(OCc2ccc3ccccc3n2)c(Cl)c1)C1CCCCC1)C(=O)O (stereo not given) | 1.2 mg/kg | – | –
70 | C/C(=N\OC(Cc1ccc(OCc2ccc3ccccc3n2)cc1)C1CCCCC1)C(=O)O (stereo not given) | – | – | 30%
71 | CCCCCCCCCCCCC(O/N=C/C(=O)O)c1ccc(OCc2ccc3ccccc3n2)cc1 (stereo not given) | – | 54% | –
72 | Cc1cc(C(O/N=C/C(=O)O)C2CCCCC2)ccc1OCc1ccc2ccccc2n1 (stereo not given) | – | – | 15%
73 | O=C(O)[C@@H](c1ccc(OCc2ccc3ccccc3n2)cc1)C1CCCC1 [VELIFLAPON] | 4 mg/kg | – | –

Source: ChEMBL document CHEMBL1133707, “Heteroarylmethoxyphenylalkoxyiminoalkylcarboxylic acids as leukotriene biosynthesis inhibitors” (J Med Chem, 2000)
